Results on ten compounds are retold here after ChEMBL document CHEMBL1201862, “PubChem BioAssay data set” (2004).

Molecules are shown by their SMILES.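 The compound was tested at five concentrations on cells cultured in 96-well plates, with a 48-hour exposure period. GI50 is the concentration that inhibits growth by half.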 Activity calls are given as the source filed them. No stated cut-off is given here; in the data, active = GI50 up to about 1.1 µM and inactive = higher. Where only a bound is given, the exact number is not on record here.

Among the test systems are DU-145; KM12; UACC-257; UO-31; COLO 205; MOLT-4; SR; Hs-578T; IGROV-1; NCI-H23; MDA-N; T47D; SW-620; TK-10; SF-295; HT-29; CAKI-1; NCI-H522; HCT-116; EKVX.
Test in all cases: NCI anticancer screen, dose series, 48 h

Turning to `CN(C)c1cccc(F)c1C(=O)NC(=O)Nc1ccc(Cl)cc1`, the GI50 in the test with DU-145 was 4.03 µM (inactive); in the test with KM12, 2.92 µM (inactive); in the test with UACC-257 it was 3.42 µM (inactive); with UO-31, 5.87 µM (inactive); in the test with COLO 205 it was 2.21 µM (inactive); with MOLT-4, 1.62 µM (inactive). Also, the GI50 in the test with SR is 0.218 µM (active); in the test on Hs-578T, 2.21 µM (inactive); with IGROV-1, 3.78 µM (inactive); in the test with NCI-H23 it was 6.34 µM (inactive); with MDA-N, 0.142 µM (active); in the test with T47D, 4.86 µM (inactive). Further, the GI50 is 1.24 µM (inactive) with SW-620; > 100 µM (inactive) in the test with TK-10; 1.55 µM (inactive) with SF-295; 1.07 µM (active) in the test on HT-29; 3.78 µM (inactive) with CAKI-1; 2.27 µM (inactive) with NCI-H522. The GI50 with HCT-116 was 1.77 µM (inactive); in the test on EKVX, 4.29 µM (inactive).
For the compound `Cc1ccc2nc3sc(=O)sc3nc2c1` [CHINOMETHIONAT], the GI50 in the test on DU-145 is > 100 µM (inactive); with KM12, 15.6 µM (inactive); in the test on UACC-257 it was 16.9 µM (inactive); in the test with UO-31, 15.4 µM (inactive); in the test with COLO 205 it was 13.9 µM (inactive); with MOLT-4, 15.2 µM (inactive). Further, the GI50 in the test on SR was 21.1 µM (inactive); in the test with Hs-578T it was 25 µM (inactive); in the test with IGROV-1 it was 16.1 µM (inactive); in the test with NCI-H23 it was 19.4 µM (inactive); with MDA-N, 17.4 µM (inactive); in the test on T47D, 83.6 µM (inactive). Further, the GI50 is 24.1 µM (inactive) in the test on SW-620; 16.4 µM (inactive) in the test on TK-10; 16.6 µM (inactive) in the test on SF-295; 17.1 µM (inactive) in the test with HT-29; 16.4 µM (inactive) in the test on CAKI-1; 17.5 µM (inactive) in the test with NCI-H522. The results for the GI50 in the test with HCT-116 and in the test on EKVX were 17.2 µM (inactive) and 14.2 µM (inactive), respectively.
As to `CC(=O)C(N1CCCCC1)C(O)(C(F)(F)F)C(F)(F)F` (stereo not given), the GI50 in the test on DU-145 is > 100 µM (inactive); in the test with KM12, > 100 µM (inactive); in the test with UACC-257 it was > 100 µM (inactive); in the test on UO-31, > 100 µM (inactive); in the test on COLO 205 it was > 100 µM (inactive); in the test on MOLT-4 it was 24 µM (inactive). For the same compound, the GI50 in the test with SR is > 100 µM (inactive); in the test on Hs-578T, 41.1 µM (inactive); in the test on IGROV-1, 89.9 µM (inactive); in the test with NCI-H23 it was 39.5 µM (inactive); in the test on MDA-N it was > 100 µM (inactive); with T47D it was 43.9 µM (inactive). The GI50 in the test on SW-620 is 98.2 µM (inactive); in the test on TK-10, > 100 µM (inactive); in the test with SF-295, > 100 µM (inactive); in the test on HT-29 it was > 100 µM (inactive); in the test with CAKI-1, > 100 µM (inactive); in the test on NCI-H522, 64 µM (inactive). Further, the results for the GI50 with HCT-116 and in the test with EKVX were 58.3 µM (inactive) and > 100 µM (inactive), respectively.
For `CNC(=O)N(CCC#N)CCCN(C(=O)N(C)C)c1ccccc1`, the GI50 with DU-145, with KM12, in the test on UACC-257, in the test on UO-31, in the test with COLO 205 and with MOLT-4 was > 100 µM (inactive) in each case. For the same compound, the GI50 was 14.5 µM (inactive) in the test on SR; > 100 µM (inactive) in the test with Hs-578T; > 100 µM (inactive) in the test with IGROV-1; > 100 µM (inactive) in the test with NCI-H23; > 100 µM (inactive) with MDA-N; > 100 µM (inactive) in the test with T47D. Besides, the GI50 in the test with SW-620, in the test with TK-10, in the test with SF-295, with HT-29, with CAKI-1 and in the test on NCI-H522 was > 100 µM (inactive) in each case. The GI50 in the test on HCT-116 and in the test on EKVX was > 100 µM (inactive) each time.
For the compound `Cn1c2c3c(F)c(F)ccc3nc-2cc2ccccc21`, the GI50 was 1.34 µM (inactive) in the test with DU-145; 0.927 µM (active) in the test with KM12; 3.83 µM (inactive) with UACC-257; 1.36 µM (inactive) in the test with UO-31; 2.08 µM (inactive) in the test with COLO 205; 0.324 µM (active) with MOLT-4. In addition, the GI50 is 2.33 µM (inactive) in the test on SR; 12.2 µM (inactive) in the test on Hs-578T; 3.42 µM (inactive) in the test on IGROV-1; 1.4 µM (inactive) with NCI-H23; 3.64 µM (inactive) with MDA-N; 0.582 µM (active) in the test on T47D. Further, the GI50 is 1.49 µM (inactive) in the test on SW-620; 0.828 µM (active) with TK-10; 1.12 µM (active) with SF-295; 1.52 µM (inactive) in the test with HT-29; 2.39 µM (inactive) in the test on CAKI-1; 3.03 µM (inactive) with NCI-H522. The figures for the GI50 in the test with HCT-116 and in the test on EKVX were 0.125 µM (active) and 12.4 µM (inactive), respectively.
`COc1ccc(NC(=O)CC(=O)NN)cc1`: the GI50 in the test with DU-145, with KM12, in the test on UACC-257, with UO-31, in the test on COLO 205 and in the test on MOLT-4 was > 100 µM (inactive) each time. In addition, the GI50 in the test with SR, with Hs-578T, with IGROV-1, in the test on NCI-H23, in the test with MDA-N and with T47D was > 100 µM (inactive) in each case. Moreover, the GI50 with SW-620, in the test with TK-10, in the test on SF-295, with HT-29, in the test on CAKI-1 and in the test on NCI-H522 was > 100 µM (inactive) throughout. Further, the GI50 in the test on HCT-116 and in the test on EKVX was > 100 µM (inactive) in each case.
For `O=C(c1ccccc1)c1ccc(-n2c3ccccc3c3ccc4c(c32)C(=O)C=CC4=O)cc1`, the GI50 in the test with DU-145 is 10.5 µM (inactive); in the test with KM12 it was 17.5 µM (inactive); in the test with UACC-257 it was 12.7 µM (inactive); in the test with UO-31, 2.74 µM (inactive); in the test with COLO 205, 9.12 µM (inactive); in the test on MOLT-4 it was 1.75 µM (inactive). Besides, the GI50 in the test with SR is 3.15 µM (inactive); in the test with Hs-578T, 23.4 µM (inactive); with IGROV-1, 16 µM (inactive); in the test with NCI-H23, 12.8 µM (inactive); in the test on MDA-N, 16.5 µM (inactive); in the test on T47D, 3.1 µM (inactive). Also, the GI50 in the test with SW-620 is 3.88 µM (inactive); in the test on TK-10, 12.7 µM (inactive); in the test on SF-295 it was 15.7 µM (inactive); in the test with HT-29 it was 2.82 µM (inactive); in the test with CAKI-1 it was 2.07 µM (inactive); with NCI-H522 it was 3.43 µM (inactive). The values for the GI50 in the test on HCT-116 and with EKVX were 5.2 µM (inactive) and 11 µM (inactive), respectively.
As for `Nc1cc(CO)cc(Nc2c3ccccc3nc3ccccc23)c1`, the GI50 is 27.3 µM (inactive) in the test on DU-145; 16.3 µM (inactive) in the test with KM12; 15.1 µM (inactive) in the test with UACC-257; 18.4 µM (inactive) with UO-31; 11.6 µM (inactive) with COLO 205; 4.5 µM (inactive) with MOLT-4. Also, the GI50 in the test on SR is 53 µM (inactive); in the test with Hs-578T it was 18.3 µM (inactive); in the test with IGROV-1, 16.9 µM (inactive); with NCI-H23 it was 15.9 µM (inactive); in the test on MDA-N, 20.6 µM (inactive); with T47D it was 18.4 µM (inactive). In addition, the GI50 in the test on SW-620 is 12.8 µM (inactive); in the test on TK-10, 16 µM (inactive); with SF-295 it was 10.9 µM (inactive); with HT-29 it was 14.7 µM (inactive); in the test on CAKI-1 it was 17.5 µM (inactive); in the test on NCI-H522, 6.59 µM (inactive). Besides, the results for the GI50 with HCT-116 and with EKVX were 15.1 µM (inactive) and 16.8 µM (inactive), respectively.
In the case of `N#Cc1nc(-c2ccc(-c3nc(C#N)c(N)o3)cc2)oc1N`, the GI50 with DU-145, with KM12, with UACC-257, in the test on UO-31, with COLO 205 and in the test with MOLT-4 was > 10 µM (inactive) each time. Also, the GI50 in the test with SR, in the test with Hs-578T, in the test with IGROV-1, with NCI-H23, in the test with MDA-N and in the test with T47D was > 10 µM (inactive) throughout. Moreover, the GI50 with SW-620, in the test with TK-10, in the test with SF-295, in the test on HT-29, in the test with CAKI-1 and in the test on NCI-H522 was > 10 µM (inactive) throughout. In addition, the GI50 in the test on HCT-116 and in the test with EKVX was > 10 µM (inactive) in each case.
Take `CS(=O)(=O)OC1CCN(C2(c3cccc(O)c3)CCCCC2)CC1`: the GI50 is 82.6 µM (inactive) in the test on DU-145; > 100 µM (inactive) with KM12; 38.4 µM (inactive) in the test on UACC-257; 44.7 µM (inactive) with UO-31; 32.6 µM (inactive) in the test with COLO 205; 27.8 µM (inactive) in the test with MOLT-4. The GI50 in the test with SR was 23.6 µM (inactive); with Hs-578T it was > 100 µM (inactive); in the test with IGROV-1, 28.7 µM (inactive); with NCI-H23, 46.5 µM (inactive); in the test with MDA-N, 30.5 µM (inactive); with T47D, 70.6 µM (inactive). Also, the GI50 in the test with SW-620 was 29.9 µM (inactive); in the test with TK-10 it was > 100 µM (inactive); in the test on SF-295, 36 µM (inactive); in the test with HT-29, 36.1 µM (inactive); in the test with CAKI-1 it was > 100 µM (inactive); in the test with NCI-H522 it was > 100 µM (inactive). Also, the GI50 with HCT-116 was 31.8 µM (inactive); with EKVX, 92.7 µM (inactive).
